In PubChem BioAssay AID248 (DTP/NCI, 2004):
Where “and” joins values, the source holds several entries; their conditions need not be identical. Equal values may be shown once. Toxic doses and inconclusive results are not listed.

System: L1210 leukemia ip in BDF1 mice, survival T/C
Test: NCI In Vivo Anticancer Drug Screen. Data for tumor model L1210 Leukemia (intraperitoneal) in B6D2F1 (BDF1) mice
Details: endpoint: mean survival time, higher = longer survival
Summary of the method: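 Ratio derived from survival: compound-dosed mice over vehicle-dosed mice, all bearing a transplantable tumor.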

[1] = dose: 100.0 mg/kg/injection, schedule: Q04DX003 (ip), vehicle: saline
[2] = dose: 200.0 mg/kg/injection, schedule: Q04DX003 (ip), vehicle: saline
[3] = dose: 400.0 mg/kg/injection, schedule: Q04DX003 (ip), vehicle: saline
[4] = dose: 25.0 mg/kg/injection, schedule: Q01DX009 (ip), vehicle: Klucel (hydroxypropylcellulose) (HPC)
[5] = dose: 50.0 mg/kg/injection, schedule: Q01DX009 (ip), vehicle: Klucel (hydroxypropylcellulose) (HPC)
[6] = dose: 100.0 mg/kg/injection, schedule: Q01DX009 (ip), vehicle: Klucel (hydroxypropylcellulose) (HPC)
[7] = dose: 100.0 mg/kg/injection, schedule: Q04DX003 (ip), vehicle: Klucel (hydroxypropylcellulose) (HPC)
[8] = dose: 200.0 mg/kg/injection, schedule: Q01DX009 (ip), vehicle: Klucel (hydroxypropylcellulose) (HPC)
[9] = dose: 200.0 mg/kg/injection, schedule: Q04DX003 (ip), vehicle: Klucel (hydroxypropylcellulose) (HPC)
[10] = dose: 400.0 mg/kg/injection, schedule: Q01DX009 (ip), vehicle: Klucel (hydroxypropylcellulose) (HPC)
[11] = dose: 400.0 mg/kg/injection, schedule: Q04DX003 (ip), vehicle: Klucel (hydroxypropylcellulose) (HPC)
[12] = dose: 400.0 mg/kg/injection, schedule: Q01DX001 (ip), vehicle: Klucel (hydroxypropylcellulose) (HPC)
[13] = dose: 100.0 mg/kg/injection, schedule: Q04DX002 (ip), vehicle: Klucel (hydroxypropylcellulose) (HPC)
[14] = dose: 200.0 mg/kg/injection, schedule: Q04DX002 (ip), vehicle: Klucel (hydroxypropylcellulose) (HPC)
[15] = dose: 400.0 mg/kg/injection, schedule: Q04DX002 (ip), vehicle: Klucel (hydroxypropylcellulose) (HPC)
[16] = dose: 100.0 mg/kg/injection, schedule: Q01DX009 (ip), vehicle: saline with Tween-80
[17] = dose: 100.0 mg/kg/injection, schedule: Q04DX003 (ip), vehicle: saline with Tween-80
[18] = dose: 200.0 mg/kg/injection, schedule: Q01DX009 (ip), vehicle: saline with Tween-80
[19] = dose: 200.0 mg/kg/injection, schedule: Q04DX003 (ip), vehicle: saline with Tween-80
[20] = dose: 400.0 mg/kg/injection, schedule: Q01DX009 (ip), vehicle: saline with Tween-80
[21] = dose: 400.0 mg/kg/injection, schedule: Q04DX003 (ip), vehicle: saline with Tween-80

With `NC(N)=Nc1nc2ccc([N+](=O)[O-])cc2[nH]1` the T/C (dose: 100.0 mg/kg/injection, schedule: Q01DX009 (ip), vehicle: saline) was 93 % of control, the T/C [1] was 90 % of control and the T/C (dose: 200.0 mg/kg/injection, schedule: Q01DX009 (ip), vehicle: saline) was 91 % of control. For the same compound, the T/C [2] was 94 % of control, the T/C (dose: 400.0 mg/kg/injection, schedule: Q01DX009 (ip), vehicle: saline) was 96 % of control and the T/C [3] was 94 % of control.

In the case of `CCC(CO)NC(=O)C1C=C2c3cccc4c3c(cn4C)CC2N(C)C1` (stereo not drawn), the T/C [4] is reported as 94 % of control and 101 % of control, the T/C (dose: 25.0 mg/kg/injection, schedule: Q04DX003 (ip), vehicle: Klucel (hydroxypropylcellulose) (HPC)) is reported as 97 % of control and the T/C [5] is reported as 94 % of control and 101 % of control. The T/C (dose: 50.0 mg/kg/injection, schedule: Q04DX003 (ip), vehicle: Klucel (hydroxypropylcellulose) (HPC)) was 103 % of control, the T/C [6] was 111 % of control and 91 % of control and the T/C [7] was 108 % of control. For the same compound, the T/C [8] was 120 % of control and 121 % of control, the T/C [9] was 109 % of control and the T/C [10] was 120 % of control. For the same compound, the T/C [11] was 104 % of control.

With `CC(=O)OC1COC(n2cnc3c(N4CCCCC4)nc(Cl)nc32)C(OC(C)=O)C1OC(C)=O` (stereo not drawn) the T/C (dose: 100.0 mg/kg/injection, schedule: Q01DX001 (ip), vehicle: saline) was 102 % of control, the T/C (dose: 200.0 mg/kg/injection, schedule: Q01DX001 (ip), vehicle: saline) was 96 % of control and the T/C (dose: 400.0 mg/kg/injection, schedule: Q01DX001 (ip), vehicle: saline) was 102 % of control.

With `CCCCN(C(=O)CCl)C(C)(C)C(SSC(c1ccc(Cl)cc1)C(C)(C)N(CCCC)C(=O)CCl)c1ccc(Cl)cc1` (stereo not drawn) the T/C (dose: 12.5 mg/kg/injection, schedule: Q01DX009 (ip), vehicle: Klucel (hydroxypropylcellulose) (HPC)) was 96 % of control, the T/C [4] was 101 % of control and the T/C [5] was 96 % of control.

In the case of `C=CCOc1nc(SC)ncc1C(=O)O`, the T/C (dose: 100.0 mg/kg/injection, schedule: Q01DX001 (ip), vehicle: Klucel (hydroxypropylcellulose) (HPC)) is reported as 97 % of control, the T/C (dose: 200.0 mg/kg/injection, schedule: Q01DX001 (ip), vehicle: Klucel (hydroxypropylcellulose) (HPC)) is reported as 97 % of control and the T/C [12] is reported as 91 % of control.

For `CN1C(=O)OC2C3NC(=O)OC3C(O)C(O)C21` (stereo not drawn), the T/C (dose: 50.0 mg/kg/injection, schedule: Q01DX001 (ip), vehicle: carboxymethylcellulose (CMC)) was 109 % of control, the T/C (dose: 100.0 mg/kg/injection, schedule: Q01DX001 (ip), vehicle: carboxymethylcellulose (CMC)) was 109 % of control and the T/C (dose: 200.0 mg/kg/injection, schedule: Q01DX001 (ip), vehicle: carboxymethylcellulose (CMC)) was 107 % of control. The T/C (dose: 400.0 mg/kg/injection, schedule: Q01DX001 (ip), vehicle: carboxymethylcellulose (CMC)) was 102 % of control.

In the case of `Cc1ccc(C)c(NC(=O)c2ccc(C(=O)O)cc2C(=O)O)c1`, the T/C [6] is reported as 95 % of control, the T/C [13] is reported as 98 % of control and the T/C [8] is reported as 100 % of control. The T/C [14] was 98 % of control, the T/C [10] was 97 % of control and the T/C [15] was 95 % of control.

For `CCCCOC(=O)c1cocc1C(=O)OCCCC`, the T/C [16] was 99 % of control, the T/C [17] was 98 % of control and the T/C [18] was 92 % of control. For the same compound, the T/C [19] was 104 % of control, the T/C [20] was 90 % of control and the T/C [21] was 93 % of control.

`CC(C)C1CC(C)(C)c2cc(O)ccc2O1` (stereo not drawn) was tested, and the T/C [7] was 101 % of control, the T/C [9] was 105 % of control and the T/C [11] was 100 % of control.

`CCc1c(Cl)c(C)cc(O)c1Cl` was tested, and the T/C (dose: 25.0 mg/kg/injection, schedule: Q01DX009 (ip), vehicle: gum acacia) was 98 % of control, the T/C (dose: 25.0 mg/kg/injection, schedule: Q04DX003 (ip), vehicle: gum acacia) was 100 % of control and the T/C (dose: 50.0 mg/kg/injection, schedule: Q01DX009 (ip), vehicle: gum acacia) was 98 % of control. For the same compound, the T/C (dose: 50.0 mg/kg/injection, schedule: Q04DX003 (ip), vehicle: gum acacia) was 90 % of control and the T/C (dose: 100.0 mg/kg/injection, schedule: Q04DX003 (ip), vehicle: gum acacia) was 96 % of control.

With `COc1c(C)c(C)c(OC)c(Br)c1C` the T/C (dose: 100.0 mg/kg/injection, schedule: Q01DX001 (ip), vehicle: saline with Tween-80) was 98 % of control, the T/C [16] was 95 % of control and the T/C (dose: 200.0 mg/kg/injection, schedule: Q01DX001 (ip), vehicle: saline with Tween-80) was 102 % of control. The T/C [18] was 98 % of control, the T/C (dose: 400.0 mg/kg/injection, schedule: Q01DX001 (ip), vehicle: saline with Tween-80) was 98 % of control and the T/C [20] was 106 % of control.

With `CCCCN(C)N=Nc1c(Cl)cc(Cl)cc1C(N)=O` the T/C (dose: 100.0 mg/kg/injection, schedule: Q01DX001 (ip), vehicle: other) was 106 % of control, the T/C [7] was 106 % of control and the T/C (dose: 200.0 mg/kg/injection, schedule: Q01DX001 (ip), vehicle: other) was 107 % of control. For the same compound, the T/C [8] was 95 % of control, the T/C (dose: 264.0 mg/kg/injection, schedule: Q01DX001 (ip), vehicle: Klucel (hydroxypropylcellulose) (HPC)) was 114 % of control and the T/C [12] was 124 % of control. For the same compound, the T/C [11] was 181 % of control.

`COC1CC=CC2=C1CCC1C2CC2C(=O)C1(C)CCC2O` (stereo not drawn) was tested, and the T/C [1] was 94 % of control, the T/C [2] was 100 % of control and the T/C [3] was 97 % of control.

With `ClCCN(CCCl)CCn1cnc2c(SCc3ccccc3)ncnc21` the T/C (dose: 13.0 mg/kg/injection, schedule: Q01DX Z (ip), vehicle: carboxymethylcellulose (CMC)) was 103 % of control, the T/C (dose: 20.0 mg/kg/injection, schedule: Q01DX Z (ip), vehicle: carboxymethylcellulose (CMC)) was 108 % of control and the T/C (dose: 30.0 mg/kg/injection, schedule: Q01DX Z (ip), vehicle: carboxymethylcellulose (CMC)) was 105 % of control. For the same compound, the T/C (dose: 45.0 mg/kg/injection, schedule: Q01DX Z (ip), vehicle: carboxymethylcellulose (CMC)) was 110 % of control.

For `NC(=O)c1cn[nH]c1/N=N/N(CCF)CCF`, the T/C (dose: 9.5 mg/kg/injection, schedule: Q01DX001 (ip), vehicle: other) was 111 % of control, the T/C (dose: 10.0 mg/kg/injection, schedule: Q01DX009 (ip), vehicle: other) was 119 % of control and the T/C (dose: 19.0 mg/kg/injection, schedule: Q01DX001 (ip), vehicle: other) was 124 % of control.

For `CCCCCCCCCCCCCCCCCC(=O)N/N=C/c1cc(OC)ccc1OC`, the T/C [6] was 89 % of control, the T/C [8] was 86 % of control and the T/C [10] was 96 % of control.

With `CC(=O)OC(C1SCCCS1)C1CC2C=CC1C2` (stereo not drawn) the T/C [13] was 115 % of control, the T/C [14] was 91 % of control and the T/C [15] was 105 % of control.

For `CC1CN(c2ccncc2N)CCN1c1ccc(Cl)cc1` (stereo not drawn), the T/C [17] was 110 % of control, the T/C [19] was 105 % of control and the T/C [21] was 105 % of control.

`CC(C)C(C=O)(CCN(C)Cc1ccccc1)c1cccc2ccccc12` (stereo not drawn) was tested, and the T/C [17] was 93 % of control, the T/C [19] was 92 % of control and the T/C [21] was 100 % of control.

`ClCc1c(CCl)c2c(c3c1CCCC3)CCCC2` was tested, and the T/C [7] was 100 % of control, the T/C [9] was 100 % of control and the T/C [11] was 103 % of control.

`CCN(CC)S(=O)(=O)c1cccc(C(=O)CC(O)(C(F)(F)F)C(F)(F)F)c1` was tested, and the T/C [17] was 94 % of control, the T/C [19] was 102 % of control and the T/C [21] was 108 % of control.

For `CC(=O)OC1CCC2C3CCc4cc(OC(=S)N(C)C)ccc4C3CCC12C` (stereo not drawn), the T/C [17] was 101 % of control, the T/C [19] was 101 % of control and the T/C [21] was 110 % of control.
